# Source: patent publication EP0433759A1, “4-Substituted alkyl carbapenem antibiotics” (Bristol-Myers Squibb Company, priority 1989, dated 1991)
# Where a name gives a salt, the structure may show the parent alone. Read-outs that look alike come from different tables or passages of the source.
# Columns and labels:
# Escherichia coli, A15119 = assay: In vitro antibacterial activity (MIC), serial 2-fold dilution; format: cell-based; conditions: read-out: Antibacterial Activity MIC E. coli
# Experimental: (§1) In vitro antibacterial activity was determined by serial 2-fold dilution of the compound in Mueller-Hinton agar and inoculation of the agar surface or broth with an appropriately diluted 18-24 h broth culture.
# [1] = tested on: Pseudomonas aeruginosa, A9843; assay: as above; format: cell-based; conditions: read-out: Antibacterial Activity MIC P. aer.
# Experimental: as §1
# [2] = tested on: Streptococcus pneumoniae, A9585; assay: as above; format: cell-based; conditions: read-out: Antibacterial Activity MIC S. pn.
# Experimental: as §1
# [3] = Chemical stability in aqueous solution (half-life); format: physicochemical; conditions: 37°C, 10^-4 M, pH 7.4, aqueous solution; read-out: Half-life (T 1/2) (converted)
# Experimental: These values were determined by the method of Woodward et al, J. Am. Chem. Soc., 102, 2042 (1980)
# [4] = Escherichia coli A15119, Mueller-Hinton, 37°C, 17 h
# [5] = Pseudomonas aeruginosa A9843, Mueller-Hinton, 37°C, 17 h
# [6] = Streptococcus pneumoniae A9585, Mueller-Hinton, 37°C, 17 h
"MIC (Escherichia coli, A15119; [4])","MIC [1, 5]","MIC [2, 6]",half-life at 100 µM [3],SMILES,"MIC (Escherichia coli, A15119; Escherichia coli, A15119, 17 h)","MIC ([1]; Pseudomonas aeruginosa, A9843, 17 h)","MIC ([2]; Streptococcus pneumoniae, A9585, 17 h)"
0.016 µg/mL,2 µg/mL,0.13 µg/mL,3.2 h,"C[C@@H](O)[C@H]1C(=O)N2C(C(=O)O)=C(SCc3ccccn3)[C@H](CCN)[C@H]12 [Example 3, (4R,5S,6S)-4-(2""-Aminoethyl)-6-[(1'R)-1'-hydroxyethyl]-3-[(pyridin-2-yl)methylthio]-7-oxo-1-azabicyclo-[3.2.0]-hept-2-ene-2-carboxylic acid]",–,–,–
0.004 µg/mL,1 µg/mL,0.06 µg/mL,117 h,"C[C@@H](O)[C@H]1C(=O)N2C(C(=O)O)=C(SCCC#N)[C@H](CCCCNC=N)[C@H]12 [Example 19, (4R,5S,6S)-3-[(2-Cyanoethyl)thio]-4-[4""-(N-formimidoyl)-amino-butyl]-6-[(1'R)-1'-hydroxyethyl]-7-oxo-1 - azabicyclo-[3.2.0]hept-2-ene-2-carboxylic acid]",–,–,–
0.016 µg/mL,1 µg/mL,0.13 µg/mL,3.5 h,"C[C@@H](O)[C@H]1C(=O)N2C(C(=O)O)=C(SCc3cccnc3)[C@H](CCN)[C@H]12 [Example 24, (4R,5S,6S)-4-(2""-Aminoethyl)-6-[(1'R)-1'-hydroxyethyl]-3-[(pyridin-3-yl)methyithio]-7-oxo-1-azabicyclo[3.2.0]-hept-2-ene-2-carboxylic acid]",–,–,–
0.004 µg/mL,0.25 µg/mL,0.25 µg/mL,76 h,"C[C@@H](O)[C@H]1C(=O)N2C(C(=O)O)=C(SCCO)[C@H](CCCNC=N)[C@H]12 [Example 32, (4R,5S,6S)-4-[3""-[N-Formimidoyl)aminopropyl]-6-[(1'R)-1'-hydroxyethyl]-3-[(2-hydroxyethyl)thio]-7-oxo-1-azabicyclo [3.2.0]hept-2-ene-2-carboxylic acid]",–,–,–
0.008 µg/mL,0.25 µg/mL,0.13 µg/mL,3.8 h,"C[C@@H](O)[C@H]1C(=O)N2C(C(=O)O)=C(SCCC#N)[C@H](CCN)[C@H]12 [Example 36, (4R,5S,6S)-4-(2""-Aminoethyl)-3-[(2-cyanoethyl)thio]-6-[(1'R)-1'-hydroxyethyl]-7-oxo-1-azabicyclo[3.2.0]hept-2-ene-2-carboxylic acid]",–,–,–
0.008 µg/mL,1 µg/mL,0.06 µg/mL,32.5 h,"C[C@@H](O)[C@H]1C(=O)N2C(C(=O)O)=C(SCc3csnn3)[C@H](CCNC(=N)N)[C@H]12 [Example 40, (4R,5S.6S)-4-(2""-Guanidinoethyl)-6-[(1'R)-1'-hydroxyethyl]-3-[(1,2.3-thiadiazol-4-yl)methyithio]-7-oxo-1-azabicyclo-[3.2.0]hept-2-ene-2-carboxylic acid]",–,–,–
0.008 µg/mL,0.5 µg/mL,0.25 µg/mL,70 h,"C[C@@H](O)[C@H]1C(=O)N2C(C(=O)O)=C(SCCC#N)[C@H](CCCN)[C@H]12 [Example 41, (4R-5S,6S)-4-(3""-Aminopropyl)-3-[(2-cyanoethy!)thio]-6-[(1'R)-1'-hydroxyethyl]-7-oxo-1-azabicyclo[3.2.0]hept-2-ene-2-carboxylic acid]",–,–,–
0.03 µg/mL,8 µg/mL,0.03 µg/mL,89 h,C[C@@H](O)[C@H]1C(=O)N2C(C(=O)O)=C(SCc3ccncc3)[C@H](CCCN)[C@H]12 [Example 44],–,–,–
0.03 µg/mL,1 µg/mL,0.5 µg/mL,2.5 h,"C[C@@H](O)[C@H]1C(=O)N2C(C(=O)O)=C(SCCCC#N)[C@H](CCN)[C@H]12 [Example 47, (4R,5S,6S)-4-(2""-Aminoethyl)-3-[(3-cyanopropyl)thio]-6-[(1'R)-l'-hydroxyethyl]-7-oxo-1-azabicyclo[3.2.0]hept-2-ene-2-carboxylic acid]",–,–,–
0.03 µg/mL,63 µg/mL,0.008 µg/mL,33.5 h,"C[C@@H](O)[C@H]1C(=O)N2C(C(=O)O)=C(SCCC#N)[C@H](CCN3CCOCC3)[C@H]12 [Example 49, (4R,5S,6S)-3-[(2-Cyanoethyl)thio]-6-[(1'R)-1'-hydroxyethyl]--4-[2""-(N-morpholino)ethyl]-7-oxo-1-azabicyclo-[3.2.0]hept-2-ene-2-carboxylic acid]",–,–,–
0.016 µg/mL,1 µg/mL,0.008 µg/mL,18 h,"C[C@@H](O)[C@H]1C(=O)N2C(C(=O)O)=C(SCCC#N)[C@H](CCN3CCCC3)[C@H]12 [Example 63, (4R,5S,6S)-3-[(2-cyanoethyl)thio]-6-[(1'R)-1'-hydroxyethyl]-4-[2""-(1-pyrrolidinyl)-ethyl]-7-oxo-1-azabicyclo[3.2.0]hept-2-ene-2-carboxylic acid]",–,–,–
0.008 µg/mL,0.25 µg/mL,0.03 µg/mL,37 h,"C[C@@H](O)[C@H]1C(=O)N2C(C(=O)O)=C(SCCC#N)[C@H](CCNC(=N)N)[C@H]12 [Example 73, (4R,5S,6S)-3-[(2-Cyanoethyl)thio]-4-(2""-guanidinoethyl)-6-[(1'R)-1'-hydroxyethyl]-7-oxo-1-azabicyclo[3.2.0]-hept-2-ene-2-carboxylic acid]",–,–,–
0.016 µg/mL,4 µg/mL,0.5 µg/mL,150 h,"C[C@@H](O)[C@H]1C(=O)N2C(C(=O)O)=C(SCCO)[C@H](CCCCN(C)C)[C@H]12 [Example 91, (4R,5S,6S)-4-(4""-N,N-Dimethylaminobutyl)-6-[(1'R)-1'-hydroxyethyl]-3-[(2-hydroxyethyl)thio]-7-oxo-1-azabicyclo-[3.2.0]hept-2-ene-2-carboxylic acid]",–,–,–
0.06 µg/mL,2 µg/mL,2 µg/mL,247 h,"CSC1=C(C(=O)O)N2C(=O)[C@H]([C@@H](C)O)[C@H]2[C@H]1CCCCN [Example 92, (4R,5S,6S)-4-(4""-Aminobutyl)-6-(1'R)-1'-hydroxyethyl-3-methylthio-7-oxo-1-azabicyclo[3.2.0]hept-2-ene-2-carboxylic acid]",–,–,–
0.008 µg/mL,8 µg/mL,0.06 µg/mL,88 h,"C[C@@H](O)[C@H]1C(=O)N2C(C(=O)O)=C(SCc3cn(C)nn3)[C@H](CCCNC=N)[C@H]12 [Example 94, (4R.5S,6S)-4-[3""-(N-Formimidoyi)aminopropyi]-6-[(1'R)-1'-hydroxyethyl]-3-[(1-methyl-1,2,3-triazol-4-yl)-methylthio]-7-oxo-1-azabicyclo[3.2.0]hept-ene-2-carboxylic acid]",–,–,–
0.008 µg/mL,2 µg/mL,0.25 µg/mL,180 h,"C[C@@H](O)[C@H]1C(=O)N2C(C(=O)O)=C(SCCOC(N)=O)[C@H](CCCCNC(=N)N)[C@H]12 [Example 100, (4R.5S,6S)-3-[(2-Carbamoyloxyethyl)thio)-4-(4""-guanidinobutyl)-6-[(1'R)-1'-hydroxyethyl]-7-oxo-1-azabicyclo-[3.2.0]-hept-2-ene-2-carboxylic acid]",–,–,–
0.13 µg/mL,0.25 µg/mL,0.13 µg/mL,33 h,"C[C@@H](O)[C@H]1C(=O)N2C(C(=O)O)=C(SCCN)[C@H](CCCN)[C@H]12 [Example 117, (4R,5S,6S)-4-(3""-Aminopropyl)-3-[(2-aminoethyl)thio]-6-[(1'R)-1'-hydroxyethyl]-7-oxo-1-azabicyclo[3.2.0]hept-2-ene-2-carboxylic acid, acetic acid_salt]",–,–,–
0.13 µg/mL,0.25 µg/mL,0.03 µg/mL,23 h,"C[C@@H](O)[C@H]1C(=O)N2C(C(=O)O)=C(SCCN3CCCC3)[C@H](CCCN)[C@H]12 [Example 120, (4R,5S,6S)-4-(3""-Aminopropyl)-6-[(1'R)-1'-hydroxyethyl]-3-[2-(1-pyrrolidinyl)ethylthio]-7-oxo-1-azabicyclo-[3.2.0]-hept-2-ene-2-carboxylic acid, acetic acid salt]",–,–,–
0.004 µg/mL,1 µg/mL,0.13 µg/mL,136 h,C[C@@H](O)[C@H]1C(=O)N2C(C(=O)O)=C(SCCC#N)[C@H](CCCCCN)[C@H]12 [Example 121],–,–,–
0.03 µg/mL,2 µg/mL,0.016 µg/mL,21 h,"C[C@@H](O)[C@H]1C(=O)N2C(C(=O)O)=C(SCCC#N)[C@H](CCN(C)CCC#N)[C@H]12 [Example 124, (4R,5S,6S)-3-[(2-Cyanoethyl)thio]-4-[2""-[N,N-(2-cyanoethyl)methylamino]ethy!]-6-[(1'R)-1'-hydroxyethyl]-7-oxo-1-azabicyclo[3.2.0]hept-2-ene-2-carboxylic acid]",–,–,–
0.125 µg/mL,8 µg/mL,0.125 µg/mL,–,"C[C@H](N)C(=O)NCC[C@H]1C(SCCC#N)=C(C(=O)O)N2C(=O)[C@H]([C@@H](C)O)[C@@H]12 [Example 145, (4R,5S,6S)-6-[(\1'R)-1'-Hydroxyethyl]-3-[(2-cyanoethyl)-thio]-4-[2""-(L-alanyl)-aminoethyl]-7-oxo-1-azabicyclo-[3.2.0]hept-2-ene-2-carboxylic acid]",–,–,–
0.125 µg/mL,128 µg/mL,0.25 µg/mL,–,"C[C@H](N)C(=O)N[C@@H](C)C(=O)NCC[C@H]1C(SCCC#N)=C(C(=O)O)N2C(=O)[C@H]([C@@H](C)O)[C@@H]12 [Example 146, (4R,5S,6S)-6-[(1'R)-1'-Hydroxyethyl]-3-[(2-cyanoethyl)-thio]-4-[2""-(L-alanyl-L-alanyl)-aminoethyl]-7-oxo-1-azabicyclo-[3.2.0]hept-2-ene-2-carboxylic acid]",–,–,–
–,–,–,–,"C[C@@H](O)[C@H]1C(=O)N2C(C(=O)O)=C(SCCN=CN)C[C@H]12 [Imipenem, imipenem, reference compound]",0.03 µg/mL,2 µg/mL,0.002 µg/mL
